Laboratory results from patent US20200230205A1, “COMPOSITIONS AND METHODS FOR TREATING MYELIN DISORDERS” (CASE WESTERN RESERVE UNIVERSITY, priority 2017, published 2020).

Experiments:
MMP-10 = MMP-10 western blot of OPC conditioned media; format: cell-based, mouse; details: OPC CM, 2.5 μM peptide, same as vehicle
Protocol: To assess MMP-2 or 10 in OPC CM or lysates, OPCs were incubated on precoated PLL, aggrecan, and laminin as described above. OPCs were treated with vehicle, 2.5 μM ISP or SISP for 2 days at 37° C. CM was then harvested and concentrated using Milipore Ultracel YM-C centrifugal filter units at max speed (Eppendorf Centrifuge […]) for 30 minutes at 4° C. […] of concentrated CM was loaded into each lane. OPC lysates were assessed using western blot techniques described below with […] protein loaded from each group. Tissue samples or cerebellar slices or purified OPC cells were homogenized with RIPA lysis buffer and protein concentration was determined by Pierce BCA protein assay kit according to the manufacture instruction (Thermo Fisher). Then, equal amounts of protein were loaded to 15% SDS-PAGE gels, and electrophoretically transferred to PVDF membranes (Millipore). The membranes were blocked in 0.1% TPBS buffer with 5% non-fat milk for 1h at room temperature and probed with indicated primary antibodies overnight at 4° C. and followed by secondary antibody conjugated to horseradish peroxidase (HRP). […] Enhanced chemiluminescence was performed with a West Pico Kit (Thermo Fisher) and detected by FluorChem E system (ProteinSimple, USA). The density of bands was quantified using ImageJ software (NIH).

[1] = system: MOG35-55-induced EAE mice; experiment: MOG35-55-induced EAE mouse model, daily intraperitoneal ISP; format: in vivo
From the text: For induction of EAE, C57BL6/J female mice at 10-week-old of age were immunized with MOG35-55 together with complete Freund's adjuvant emulsion (Hooke Laboratories, MOG35-55 EAE Induction kit, EK-2110) according to the manufacturers' instruction. Using the EAE Induction Kit result in 98% successful disease induction. All EAE animals were monitored daily and scored using a clinical scale from 0 to 5 (0: no abnormality; 1: limp tail; 2: limp tail and hind legs weakness; 3: limp tail and complete paralysis of hind legs; 4, hind leg and partial front leg paralysis; 5: moribund. Once EAE mice scored for I or 3, they were randomly recruited into treatment group and vehicle group. For treatment group, 5-7 mice were given daily intraperitoneal injections of ISP (20 μg/day), or 5% DMSO in saline, 100 μl) for Vehicle group. Experiments were blinded and animals were scored daily. For ISP Onset: ISP treatment was given at onset of sickness scored by clinical scale. For ISP Peak: ISP treatment was given at peak of sickness scored by clinical scale
LFB staining was performed according to the manufacturer's instruction (#26681, Electron Microscopy Sciences). For spinal cord sections, 20 μm coronal sections were incubated in LFB solution in 56° C. overnight and then rinsed sequentially with 95% alcohol and distilled water. The sections were then in 0.1% lithium carbonate solution and followed dehydration with a series of gradated ethanol, cleared with Histoclear and mounted. A set of serial matched sections were imaged and analyzed. Images (5 to 6 sections/animal) were captured under light microscope. The demyelinated areas (lack of LFB staining) were quantified using ImageJ software. For EAE sections, demyelinated areas were measured and represented as a percentage of total area of spinal cord. For sections of LPC model, lesion volumes were calculated by the lesion area from serial sections throughout the entire lesion based on the equation for volume of cylinder (V=lesion area×length of lesion).
Mice were anesthetized with avertin and perfusion with PBS and 4% paraformaldehyde (PFA). Brain or spinal cord were dissected and post-fixed in 4% PFA overnight at 4° C. and equilibrated in 20% sucrose. 20 μm-thick sections were pretreated with Reveal Decloaker Solution (RV 1000M, Biocare Medical) for antigen retrieval according to the manufacturer's instructions. After blocking, sections were incubated with primary antibodies overnight at 4° C. and followed by appropriate secondary antibodies conjugated with Alexa fluorescence 488 or 594. The following primary antibodies were used: MBP (SMI-99P, Covance, 1:300), NeuF200 (N4142, Sigma, 1:250), CS-56 (C8035, Sigma, 1:250), CAT301 (MAB5284, Millipore, 1:250), versican (AB 1032, Millipore, 1:250), Iba1 (019-19741, WAKO, 1:250), GFAP (MAB360, Millipore, 1:250), Olig2 (AB9610, Millipore, 1:250), CC1 (OP80, Millipore, 1:250). For each staining, at least 3 individual animals/group were examined and images were captured with a Leica DFC500 fluorescence microscope. Staining was quantified using Image J software (US National Instisutes of Health, USA). Fluorescence intensity was calculated as percentages of the mean value of the naïve controls.
For ultrastructural analyses of myelination, anesthetized animals were perfused with 2% glutaraldehyde/4% paraformaldehyde in 0.1 M sodium carcodylate buffer, PH7.4 (Electron Microscopy Sciences). Lesioned areas of the LPC or EAE-induced spinal cords from ISP-treated or control animals were dissected and post-fixed in 1% OsO4 for 2 hrs. Coronal sections ([…]) of spinal cord or brain containing corpus callosum were prepared (Leica, Vibratome), dehydrated, stained with saturated uranyl acetate and embedded in a Poly/Bed812 resin (Polysciences Inc.). The 1 μm-thick sections were cut and stained with toluidine blue, and matched areas were selected for EM analysis. […]

[2] = 41 days following EAE induction

Sequence: GRKKRRQRRRCDMAEHMERLKANDSLKLSQEYESI [ISP]
- MMP-10 secretion, western blot (MMP-10): equally low amounts
- demyelination baseline (LFB) vs vehicle ([1]; 18 days following EAE induction): not significantly different
- GFAP (reactive astrocytes) immunofluorescence [1, 2]: significant decreases
- Iba1 (microglia/macrophages) immunofluorescence [1, 2]: significant decreases
- time until functional recovery was initially observed ([1]; EAE ISP Onset group, ISP 20 μg/mouse daily i.p., days of ISP administration): 10 to 12 days
- clinical score ([1]; EAE ISP Onset group, several animals, after 20-22 days of ISP (~33 days post immunization)): 0.5-1
- clinical score ([1]; EAE ISP Peak group, ISP started at peak of sickness): improved significantly
- percentage of CC1+ oligodendrocytes in lesions ([1]; EAE animals, 41 days): significantly enhanced
- number of myelinated/remyelinated axons, electron microscopy ([1]; EAE-lesioned spinal cord vs vehicle): increase of myelinated/remyelinated axons
- MBP immunostaining ([1]; ISP for 41 days vs control EAE animals): denser
- lesion size, LFB myelin staining ([1]; Onset treated animals, spinal cord): especially reduced
- Arginase-1 (M2 microglia marker) immunostaining ([1]; spinal cord of EAE mice): increased M2 microglia
- iNOS (M microglia marker) immunostaining ([1]; spinal cord of EAE mice): decreased M microglia
- MBP expression, western blot ([1]; spinal cord tissue of EAE mice): restoration of MBP expression
- CSPG (Cat301, aggrecan) immunostaining ([1]; thoracic spinal cord, 41 days post-induction): markedly decreased
